Experimental data published in patent publication US20260335468A1, “MOLECULAR RADIOAFTERGLOW PROBES FOR CANCER RADIODYNAMIC THERANOSTICS” (NANYANG TECHNOLOGICAL UNIVERSITY, priority 2023, published 2026).

Columns and labels:
[1] = Afterglow through chicken breast tissue (tissue penetration depth study); format: physicochemical
Procedure: IDPASu (100 M, 100 l) solution in a round cap with a diameter of 1 cm was prepared and placed under the chicken breast tissue with different thicknesses (0, 1.0, 2.5, 5.0, 10.0 and 15.0 cm). To avoid the influence of afterglow intensity differences on tissue penetration, the X-ray source (Moxtek, Inc.) and xenon lamp (PLS-SEX300D, Beijing Perfectlight Technology Co., Ltd.) were optimized to ensure that all the samples at 0 cm (without coverage) received the same dose of X-rays (5 mGy, 250 μGy s^−1 for 20 s) or light (180 mW cm^−2 for 20 s) and thus the same afterglow intensity. After the cessation of irradiation, radio afterglow or photoafterglow was detected with or without the chicken breast tissues using the IVIS bioluminescence mode with an open filter and acquisition time of 120 s.
To induce afterglow, IDPASu was irradiated with X-ray or light through chicken breast tissues before signal detection (FIGS. 11a-b). To eliminate the influence of intensity difference on tissue penetration, X-ray and light irradiation were optimized to ensure similar intensity without tissue coverage. […] Radio afterglow of IDPASu was inducible and detectable even through ~15 cm tissue, showing ~4.2-fold higher signal than that of IDPASu without X-ray irradiation and tissue (FIG. 11d).

subcutaneous U87 tumour = test: RDT of subcutaneous U87 tumour-bearing mice with IDPASu; format: in vivo, mouse (BALB/c nude), human U87; details: intratumoral, X-ray total 0.3 Gy in three fractions
Procedure: To establish a subcutaneous glioblastoma mouse model, BALB/c nude mice (six weeks old, female) were anaesthetized with isoflurane (2.0%) and subcutaneously injected with human U87 or U87-Luc (2×10^6 per mouse) suspended in PBS (0.01 M, pH 7.4) on the left flank or bilateral flank of each mouse. The tumour size was calculated according to the formula V=½ab^2, where a and b are the longest and shortest diameter of the tumour, respectively. After tumour sizes reached ~70 mm^3, the mice were used for imaging and therapy. […] At 15 min post-injection, bioluminescence signals were recorded using an IVIS imaging system with an open filter and automatic acquisition time. […]
For subcutaneous tumour therapy, to study the X-ray dynamic activity of IDPASu, U87-tumour-bearing mice were randomly divided into four groups (PBS, PBS+X-ray, IDPASu and IDPASu+X-ray), which includes five mice per group. […] The tumour volume and body weight of mice were monitored every two days. […] The brain tumour size was monitored using bioluminescence signals of luciferin from the tumour site every three days. […]

Structure (SMILES): COC(=C1C2CC3CC(C2)CC1C3)c1cc(O)c(I)cc1/C=C/C1=CC(=C(C#N)C#N)c2ccccc2S1 [IDPASu]
- radio afterglow signal through ~15 cm tissue versus IDPASu without X-ray irradiation and tissue ([1]; 15 cm chicken breast tissue): ~ 4.2 fold
- penetration depth, Detection with tissue (induction without tissue) ([1]; X-ray 0.005 Gy): 15 cm
- penetration depth, Induction and detection through tissue ([1]; X-ray 0.005 Gy): 5 cm
- radio afterglow intensity at tissue depth of 1 cm ([1]; induction by X-ray through tissue, detection without tissue): ~ 1.79×10^6 photons s^−1 cm^−2 sr^−1
- photoafterglow intensity at tissue depth of 1 cm ([1]; induction by light through tissue, detection without tissue): 7.20×10^4 photons s^−1 cm^−2 sr^−1
- body weight loss (subcutaneous U87 tumour): no loss in body weight
- tumour growth (subcutaneous U87 tumour): completely inhibited the tumour growth
